Measurements published in EPA's ToxValDB 9.5 (doi:10.2903/j.efsa.2018.5288).
In brackets after ≈: the same amount, converted by molar mass.

Assays:
Lepomis macrochirus = settings: acute; duration: 96 hours; mortality
Mus musculus = settings: chronic; duration: 18 months; oral; diet; neurology
Apis mellifera = settings: acute, mortality
Anas platyrhynchos = settings: short-term; mortality

Structure (SMILES): CCCCC(CC)COC(=O)[C@@H](C)Oc1ccc(Cl)cc1Cl (stereo not given in full) [Dichlorprop-P-2-ethylhexyl]
- LD50 (Rattus norvegicus; acute, mortality): 824 mg/kg-day
- NOAEL (Rattus norvegicus; developmental, development): 80 mg/kg-day
- NOAEL (Rattus norvegicus; reproduction developmental, body weight): 20 mg/kg-day
- LC50 (Lepomis macrochirus): 7.9 mg/L (≈ 22.7 µM)
- NOAEL (Mus musculus): 6 mg/kg-day
- LD50 (Colinus virginianus; acute, oral, mortality): 1010 mg/kg-day
- NOEL (Colinus virginianus; reproduction developmental): 101 mg/kg-day
- LD50 (Apis mellifera; dermal): > 180 µg/piece
- LD50 (Apis mellifera; oral, unspecified): > 178 µg/piece
- LD50 (Anas platyrhynchos): > 928 mg/kg-day
